This passage reports MIC results from patent US6916803B2, “3-(Heteroaryl acetamido)-2-oxo-azetidine-1-sulfonic acids derivatives as antibacterial agents” (Pantherix, Ltd., priority 2000, dated 2005).

Test in all cases: MIC, standard microbroth dilution method (NCCLS)
Format in all cases: cell-based

One test concerns C. freundii K 500. The following applies: Citrobacter freundii, K500. As to the method:
(§1) The compounds of the present invention were tested for minimum inhibitory concentration (MIC) against the bacteria listed in Table-1 according to the standard microbroth dilution method as described in NCCLS document. The minimum inhibitory concentration is expressed in μg/ml.

Another test relates to M Morganii K 1250. As to the method: as §1
Another test relates to E. coli TEM-2. The following applies: Escherichia coli, TEM2. As to the method: as §1
In another test the test system is K pneumoniae K-1150. As to the method: as §1
The test system of a further test is P. aeruginosa PD 2721. Particulars: Pseudomonas aeruginosa, PD2721. As to the method:
as §1

Another test deals with P. aeruginosa CL 1267. Particulars: Pseudomonas aeruginosa, CL1267. The procedure:
as §1

The next test concerns P. aeruginosa S 1598. Particulars: Pseudomonas aeruginosa, S1598. As to the method: as §1
For a further test, the system named is E. cloaacae S 480-2. As to the method:
as §1

In brackets after ≈: the same amount, converted by molar mass. Where two headings read alike, the source gives them in different places.

In the case of `NC(=O)OC[C@@H]1[C@H](NC(=O)/C(=N\OCC(=O)O)c2csc(N)n2)C(=O)N1S(=O)(=O)O` [Carumonam, reference compound], the MIC in the test on C. freundii K 500 turned out to be 0.06 µg/mL (≈ 0.129 µM); in the test on M Morganii K 1250, 0.06 µg/mL (≈ 0.129 µM); in the test with E. coli TEM-2 (E. coli TEM-2, read-out: MIC) it was 0.06 µg/mL (≈ 0.129 µM); against K pneumoniae K-1150 it was 0.06 µg/mL (≈ 0.129 µM); against P. aeruginosa PD 2721, 32 µg/mL (≈ 68.6 µM); in the test with P. aeruginosa CL 1267, 8 µg/mL (≈ 17.2 µM). For the same compound, the MIC is 8 µg/mL (≈ 17.2 µM) in the test with P. aeruginosa S 1598 and 0.06 µg/mL (≈ 0.129 µM) against E. cloaacae S 480-2.
Turning to `C[C@H]1[C@H](NC(=O)/C(=N\OCc2cc(=O)c(O)cn2O)c2csc(N)n2)C(=O)N1S(=O)(=O)[O-].[Na+]` [Example 1], the MIC worked out at 0.13 µg/mL in the test with C. freundii K 500; 0.06 µg/mL in the test on M Morganii K 1250; 0.06 µg/mL against E. coli TEM-2; 0.13 µg/mL with K pneumoniae K-1150; 4 µg/mL with P. aeruginosa PD 2721; 0.06 µg/mL against P. aeruginosa CL 1267. Further, the minimal inhibitory concentration (MIC) against P. aeruginosa S 1598 came to 0.13 µg/mL; in the test with E. cloaacae S 480-2 it was 0.06 µg/mL.
Turning to `NC(=O)OCC1C(NC(=O)/C(=N\OCc2cc(=O)c(O)cn2O)c2csc(N)n2)C(=O)N1S(=O)(=O)[O-].[Na+]` (stereo not drawn) [Example 2, 3-[2-(2-Aminothiazol-4-yl)-(Z)-2-{(1,5-dihydroxy-4-pyridon-2-ylmethoxy)imino}-acetamido]-4-carbamoyloxymethyl-2-azetidinone-1-sulfonic acid, sodium salt], the MIC with C. freundii K 500 turned out to be 0.5 µg/mL; in the test with M Morganii K 1250 it was 0.13 µg/mL; in the test with E. coli TEM-2, 0.06 µg/mL; with K pneumoniae K-1150, 0.06 µg/mL; in the test on P. aeruginosa PD 2721 it was 128 µg/mL; against P. aeruginosa CL 1267, 0.06 µg/mL. The MIC in the test on P. aeruginosa S 1598 was 0.13 µg/mL; in the test with E. cloaacae S 480-2, 0.25 µg/mL.
For the compound `Nc1nc(/C(=N/OCc2cc(=O)c(O)cn2O)C(=O)NC2C(=O)N(S(=O)(=O)[O-])C2CF)cs1.[Na+]` (stereo not drawn) [Example 3, 3-[2-(2-Aminothiazol-4-yl)-(Z)-2-{(1,5-dihydroxy-4-pyridon-2-yl-methoxy)imino}-acetamido]-4-fluoromethyl-2-azetidinone-1-sulfonic acid, sodium salt], the MIC is 0.5 µg/mL in the test with C. freundii K 500; 0.06 µg/mL against M Morganii K 1250; 0.06 µg/mL in the test with E. coli TEM-2; 0.06 µg/mL against K pneumoniae K-1150; 32 µg/mL against P. aeruginosa PD 2721; 0.06 µg/mL in the test with P. aeruginosa CL 1267. Besides, the figures for the MIC with P. aeruginosa S 1598 and against E. cloaacae S 480-2 were 0.13 µg/mL and 2 µg/mL, respectively.
Regarding `C[C@H]1[C@H](NC(=O)/C(=N\OC(C)(C)C(=O)O)c2csc(N)n2)C(=O)N1S(=O)(=O)O` [Aztreonam, reference compound], the MIC against C. freundii K 500 turned out to be 0.13 µg/mL (≈ 0.299 µM); in the test on M Morganii K 1250 it was 0.06 µg/mL (≈ 0.138 µM); with E. coli TEM-2 (E. coli TEM-2, read-out: MIC), 0.06 µg/mL (≈ 0.138 µM); in the test on K pneumoniae K-1150 it was 0.06 µg/mL (≈ 0.138 µM); in the test with P. aeruginosa PD 2721, 64 µg/mL (≈ 147 µM); in the test on P. aeruginosa S 1598, 32 µg/mL (≈ 73.5 µM). In the test on E. cloaacae S 480-2, this compound came in with an MIC of 0.13 µg/mL (≈ 0.299 µM).
